Measured values taken from PMC7781311 (bioRxiv, 2021).
Starred links: 1 amine or outer side, 2 acyl side, 3 side chain; linkers in the order of their positions; H or OH if unused. Residues, ends and D or L forms follow the SMILES beside them. CO = O=C([*:1])[*:2]

Each molecule was assayed on SARS-CoV-2-S pseudotyped particles (PP). Conditions: not given.
Format: cell-based

Row | SMILES | SARS-2 PP Efficacy
1 | CC(C)[C@H](NC(=O)[C@H](CCCNC(=N)N)NC(=O)N[C@@H](Cc1ccccc1)C(=O)O)C(=O)N[C@H](C=O)CCCNC(=N)N [NCGC00390338, Antipain] ({Phe-CO}-Arg-Val-Arg-aldehyde) | about 60%
2 | CCOC(=O)c1ccc(OC(=O)CCCCCNC(=N)N)cc1 [NCGC00025297, Gabexate] | 0%
3 | COC(=O)[C@H](Cc1cccc(C(=N)N)c1)[C@@H](C)NC(=O)c1ccc(-c2cc[n+]([O-])cc2)cc1 [NCGC00378763, Otamixaban] | 50%
4 | N=C(N)c1ccc2nc(-c3cc(CC(=O)N[C@@H](CC(=O)O)C(=O)O)cc(-c4cc(S(N)(=O)=O)ccc4O)c3O)[nH]c2c1 [NCGC00387860, PCI-27483] | about 60%
5 | CN(C)C(=O)COC(=O)Cc1ccc(OC(=O)c2ccc(NC(=N)N)cc2)cc1 [NCGC00167526, Camostat] | 100%
6 | N=C(N)c1ccc2cc(OC(=O)c3ccc(N=C(N)N)cc3)ccc2c1 [NCGC00160398, Nafamostat] | 100%

Same assay, conditions: listed as otamixaban

Row | SMILES | SARS-2 PP Efficacy
7 | COC(=O)[C@H](Cc1cccc(C(=N)N)c1)[C@@H](C)NC(=O)c1ccc(-c2cc[n+]([O-])cc2)cc1 [NCGC00378763, Otamixaban] | about 50%
